Experimental data published in PubChem BioAssay (NCI).
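Tested at 5 concentrations; 48 h exposure; 96-well plates; endpoints linearly interpolated, else capped at highest concentration. GI50 is the concentration that inhibits growth by half. TGI is the concentration that stops growth completely.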

Key:
Assay in all cases: inhibition of tumour cell growth, NCI panel, 48 h
SK-OV-3 ovarian = test system: SK-OV-3 ovarian
HCC-2998 colon = test system: HCC-2998 colon
OVCAR-4 ovarian = test system: OVCAR-4 ovarian
PC-3 prostate = test system: PC-3 prostate
EKVX NSCLC = test system: EKVX NSCLC
HL-60(TB) leukemia = test system: HL-60(TB) leukemia
HCT-15 colon = test system: HCT-15 colon
SN12C renal = test system: SN12C renal
OVCAR-5 ovarian = test system: OVCAR-5 ovarian
MDA-MB-231 breast = test system: MDA-MB-231 breast
K-562 leukemia = test system: K-562 leukemia
A549 NSCLC = test system: A549 NSCLC
T-47D breast = test system: T-47D breast
HS 578T breast = test system: HS 578T breast
NCI-H460 lung = test system: NCI-H460 lung
NCI-H522 lung = test system: NCI-H522 lung
SF-268 CNS = test system: SF-268 CNS
A498 renal = test system: A498 renal
IGROV1 ovarian = test system: IGROV1 ovarian
CCRF-CEM leukemia = test system: CCRF-CEM leukemia
NCI-H226 lung = test system: NCI-H226 lung
OVCAR-3 ovarian = test system: OVCAR-3 ovarian
SNB-75 CNS = test system: SNB-75 CNS
SW-620 colon = test system: SW-620 colon
DU-145 prostate = test system: DU-145 prostate
OVCAR-8 ovarian = test system: OVCAR-8 ovarian
MCF7 breast = test system: MCF7 breast
NCI-H23 lung = test system: NCI-H23 lung
SF-539 CNS = test system: SF-539 CNS
U251 CNS = test system: U251 CNS
TK-10 renal = test system: TK-10 renal
MDA-MB-435 = test system: MDA-MB-435
HCT-116 colon = test system: HCT-116 colon
RXF 393 renal = test system: RXF 393 renal
MOLT-4 leukemia = test system: MOLT-4 leukemia
HOP-92 NSCLC = test system: HOP-92 NSCLC
M14 melanoma = test system: M14 melanoma
KM12 colon = test system: KM12 colon
SK-MEL-2 melanoma = test system: SK-MEL-2 melanoma
SK-MEL-5 melanoma = test system: SK-MEL-5 melanoma
MALME-3M melanoma = test system: MALME-3M melanoma
RPMI-8226 leukemia = test system: RPMI-8226 leukemia
CAKI-1 renal = test system: CAKI-1 renal
HOP-62 NSCLC = test system: HOP-62 NSCLC
LOX IMVI melanoma = test system: LOX IMVI melanoma
SK-MEL-28 melanoma = test system: SK-MEL-28 melanoma
UO-31 renal = test system: UO-31 renal
786-0 renal = test system: 786-0 renal
SF-295 CNS = test system: SF-295 CNS
COLO 205 colon = test system: COLO 205 colon
ACHN renal = test system: ACHN renal
NCI/ADR-RES ovarian = test system: NCI/ADR-RES ovarian
BT-549 breast = test system: BT-549 breast
UACC-62 melanoma = test system: UACC-62 melanoma
SNB-19 CNS = test system: SNB-19 CNS
HT29 colon = test system: HT29 colon

`COc1ccc(/C=C/c2nnc(/C=C/c3ccc(OC)c(OC)c3)o2)cc1OC` gave a GI50 (SK-OV-3 ovarian) of 8.62 µM, a TGI (SK-OV-3 ovarian) of 93.3 µM and a GI50 (HCC-2998 colon) of 19.4 µM. It also gave a TGI (HCC-2998 colon) of over 100 µM, a GI50 (OVCAR-4 ovarian) of 9.08 µM and a TGI (OVCAR-4 ovarian) of over 100 µM. It also gave a GI50 (PC-3 prostate) of 4.07 µM, a TGI (PC-3 prostate) of over 100 µM and a GI50 (EKVX NSCLC) of 6.22 µM. For the same compound, the TGI (EKVX NSCLC) was over 100 µM, the GI50 (HL-60(TB) leukemia) was 2.36 µM and the TGI (HL-60(TB) leukemia) was 8.6 µM. For the same compound, the GI50 (HCT-15 colon) was 2.78 µM, the TGI (HCT-15 colon) was over 100 µM and the GI50 (SN12C renal) was 5.5 µM. The TGI (SN12C renal) was over 100 µM, the GI50 (OVCAR-5 ovarian) was 4.9 µM and the TGI (OVCAR-5 ovarian) was 53.8 µM. It also gave a GI50 (MDA-MB-231 breast) of 3.62 µM, a TGI (MDA-MB-231 breast) of 43.4 µM and a GI50 (K-562 leukemia) of 1.83 µM. It also gave a TGI (K-562 leukemia) of over 100 µM, a GI50 (A549 NSCLC) of 4.84 µM and a TGI (A549 NSCLC) of over 100 µM. It also gave a GI50 (T-47D breast) of 3.48 µM, a TGI (T-47D breast) of 81.2 µM and a GI50 (HS 578T breast) of 3.71 µM. For the same compound, the TGI (HS 578T breast) was 47.5 µM, the GI50 (NCI-H460 lung) was 4.23 µM and the TGI (NCI-H460 lung) was over 100 µM. It also gave a GI50 (NCI-H522 lung) of 1.9 µM, a TGI (NCI-H522 lung) of 6.8 µM and a GI50 (SF-268 CNS) of 7.77 µM. The TGI (SF-268 CNS) was over 100 µM, the GI50 (A498 renal) was 0.24 µM and the TGI (A498 renal) was 9.1 µM. The GI50 (IGROV1 ovarian) was 4.23 µM, the TGI (IGROV1 ovarian) was over 100 µM and the GI50 (CCRF-CEM leukemia) was 3.97 µM. It also gave a TGI (CCRF-CEM leukemia) of over 100 µM, a GI50 (NCI-H226 lung) of 14.9 µM and a TGI (NCI-H226 lung) of over 100 µM. The GI50 (OVCAR-3 ovarian) was 5.01 µM, the TGI (OVCAR-3 ovarian) was 80.8 µM and the GI50 (SNB-75 CNS) was 4.22 µM. The TGI (SNB-75 CNS) was 45.5 µM, the GI50 (SW-620 colon) was 3.35 µM and the TGI (SW-620 colon) was over 100 µM. The GI50 (DU-145 prostate) was 15 µM, the TGI (DU-145 prostate) was over 100 µM and the GI50 (OVCAR-8 ovarian) was 8.78 µM. It also gave a TGI (OVCAR-8 ovarian) of over 100 µM, a GI50 (MCF7 breast) of 3.44 µM and a TGI (MCF7 breast) of over 100 µM. It also gave a GI50 (NCI-H23 lung) of 4.4 µM, a TGI (NCI-H23 lung) of over 100 µM and a GI50 (SF-539 CNS) of 2.66 µM. The TGI (SF-539 CNS) was 9.4 µM, the GI50 (U251 CNS) was 3.81 µM and the TGI (U251 CNS) was 18.6 µM. For the same compound, the GI50 (TK-10 renal) was 3.77 µM, the TGI (TK-10 renal) was 27.8 µM and the GI50 (MDA-MB-435) was 0.929 µM. The TGI (MDA-MB-435) was 3.93 µM, the GI50 (HCT-116 colon) was 2.57 µM and the TGI (HCT-116 colon) was 17.7 µM. It also gave a GI50 (RXF 393 renal) of 7.9 µM, a TGI (RXF 393 renal) of 78.1 µM and a GI50 (MOLT-4 leukemia) of 3.24 µM. It also gave a TGI (MOLT-4 leukemia) of over 100 µM, a GI50 (HOP-92 NSCLC) of 2.52 µM and a TGI (HOP-92 NSCLC) of 23.3 µM. It also gave a GI50 (M14 melanoma) of 3.1 µM, a TGI (M14 melanoma) of 26 µM and a GI50 (KM12 colon) of 6.86 µM. It also gave a TGI (KM12 colon) of over 100 µM, a GI50 (SK-MEL-2 melanoma) of 2.9 µM and a TGI (SK-MEL-2 melanoma) of 18.6 µM. It also gave a GI50 (SK-MEL-5 melanoma) of 2.17 µM, a TGI (SK-MEL-5 melanoma) of 10.1 µM and a GI50 (MALME-3M melanoma) of 6.16 µM. It also gave a TGI (MALME-3M melanoma) of over 100 µM, a GI50 (RPMI-8226 leukemia) of 2.65 µM and a TGI (RPMI-8226 leukemia) of over 100 µM. The GI50 (CAKI-1 renal) was 11.4 µM, the TGI (CAKI-1 renal) was over 100 µM and the GI50 (HOP-62 NSCLC) was 5.21 µM. It also gave a TGI (HOP-62 NSCLC) of over 100 µM, a GI50 (LOX IMVI melanoma) of 3.11 µM and a TGI (LOX IMVI melanoma) of 29 µM. It also gave a GI50 (SK-MEL-28 melanoma) of 4.96 µM, a TGI (SK-MEL-28 melanoma) of over 100 µM and a GI50 (UO-31 renal) of 4.78 µM. The TGI (UO-31 renal) was over 100 µM, the GI50 (786-0 renal) was 5.59 µM and the TGI (786-0 renal) was over 100 µM. It also gave a GI50 (SF-295 CNS) of 2.95 µM, a TGI (SF-295 CNS) of 17.7 µM and a GI50 (COLO 205 colon) of 8.35 µM. It also gave a TGI (COLO 205 colon) of 98.2 µM, a GI50 (ACHN renal) of 13.9 µM and a TGI (ACHN renal) of over 100 µM. For the same compound, the GI50 (NCI/ADR-RES ovarian) was 3.52 µM, the TGI (NCI/ADR-RES ovarian) was over 100 µM and the GI50 (BT-549 breast) was 2.9 µM. For the same compound, the TGI (BT-549 breast) was 35.7 µM, the GI50 (UACC-62 melanoma) was 2.39 µM and the TGI (UACC-62 melanoma) was 9.91 µM. It also gave a GI50 (SNB-19 CNS) of 4.11 µM, a TGI (SNB-19 CNS) of 91.7 µM and a GI50 (HT29 colon) of 2.61 µM. For the same compound, the TGI (HT29 colon) was 10.8 µM.
